Our source for the EC50, Ki and Km values is ChEMBL document CHEMBL1127008, “Synthesis of myo-inositol 1,2,4,5-tetrakisphosphate, a Ca2+-mobilising tetrakisphosphate with a potency similar to myo-inositol 1,4,5-trisphosphate” (Bioorg Med Chem Lett, 1993).

Molecules are shown by their SMILES. Some results are limits rather than exact numbers.

As usually defined, the EC50 is the midpoint of the concentration-response curve. The term Ki denotes a dissociation constant, usually derived from enzyme kinetics or from competition with a known ligand. Broadly, the Km is the substrate concentration at which the rate is half of its maximum.

Experiment [1] can be described thus: Compound was evaluated for its ability to mobilize calcium from [Ca(2+)]-preloaded SH-SY5Y cells permeabilised using saponin; devoid of [Ca2+] mobilising activity. The format is functional, cell-based, Homo sapiens.
Experiment [2] in a line: Compound was evaluated for its ability to mobilize calcium in 1321NI cells. It is filed as functional, cell-based.
Experiment [3] deals with Inositol 1,4,5-trisphosphate-gated calcium channel ITPR3 (Bos taurus, UniProt Q8WN95). Description: Compound was evaluated for its ability to displace [3H]Ins(1,4,5)P3 from membranes prepared from bovine adrenal corticles.
Sequence of Inositol 1,4,5-trisphosphate-gated calcium channel ITPR3 (Q8WN95 whole entry): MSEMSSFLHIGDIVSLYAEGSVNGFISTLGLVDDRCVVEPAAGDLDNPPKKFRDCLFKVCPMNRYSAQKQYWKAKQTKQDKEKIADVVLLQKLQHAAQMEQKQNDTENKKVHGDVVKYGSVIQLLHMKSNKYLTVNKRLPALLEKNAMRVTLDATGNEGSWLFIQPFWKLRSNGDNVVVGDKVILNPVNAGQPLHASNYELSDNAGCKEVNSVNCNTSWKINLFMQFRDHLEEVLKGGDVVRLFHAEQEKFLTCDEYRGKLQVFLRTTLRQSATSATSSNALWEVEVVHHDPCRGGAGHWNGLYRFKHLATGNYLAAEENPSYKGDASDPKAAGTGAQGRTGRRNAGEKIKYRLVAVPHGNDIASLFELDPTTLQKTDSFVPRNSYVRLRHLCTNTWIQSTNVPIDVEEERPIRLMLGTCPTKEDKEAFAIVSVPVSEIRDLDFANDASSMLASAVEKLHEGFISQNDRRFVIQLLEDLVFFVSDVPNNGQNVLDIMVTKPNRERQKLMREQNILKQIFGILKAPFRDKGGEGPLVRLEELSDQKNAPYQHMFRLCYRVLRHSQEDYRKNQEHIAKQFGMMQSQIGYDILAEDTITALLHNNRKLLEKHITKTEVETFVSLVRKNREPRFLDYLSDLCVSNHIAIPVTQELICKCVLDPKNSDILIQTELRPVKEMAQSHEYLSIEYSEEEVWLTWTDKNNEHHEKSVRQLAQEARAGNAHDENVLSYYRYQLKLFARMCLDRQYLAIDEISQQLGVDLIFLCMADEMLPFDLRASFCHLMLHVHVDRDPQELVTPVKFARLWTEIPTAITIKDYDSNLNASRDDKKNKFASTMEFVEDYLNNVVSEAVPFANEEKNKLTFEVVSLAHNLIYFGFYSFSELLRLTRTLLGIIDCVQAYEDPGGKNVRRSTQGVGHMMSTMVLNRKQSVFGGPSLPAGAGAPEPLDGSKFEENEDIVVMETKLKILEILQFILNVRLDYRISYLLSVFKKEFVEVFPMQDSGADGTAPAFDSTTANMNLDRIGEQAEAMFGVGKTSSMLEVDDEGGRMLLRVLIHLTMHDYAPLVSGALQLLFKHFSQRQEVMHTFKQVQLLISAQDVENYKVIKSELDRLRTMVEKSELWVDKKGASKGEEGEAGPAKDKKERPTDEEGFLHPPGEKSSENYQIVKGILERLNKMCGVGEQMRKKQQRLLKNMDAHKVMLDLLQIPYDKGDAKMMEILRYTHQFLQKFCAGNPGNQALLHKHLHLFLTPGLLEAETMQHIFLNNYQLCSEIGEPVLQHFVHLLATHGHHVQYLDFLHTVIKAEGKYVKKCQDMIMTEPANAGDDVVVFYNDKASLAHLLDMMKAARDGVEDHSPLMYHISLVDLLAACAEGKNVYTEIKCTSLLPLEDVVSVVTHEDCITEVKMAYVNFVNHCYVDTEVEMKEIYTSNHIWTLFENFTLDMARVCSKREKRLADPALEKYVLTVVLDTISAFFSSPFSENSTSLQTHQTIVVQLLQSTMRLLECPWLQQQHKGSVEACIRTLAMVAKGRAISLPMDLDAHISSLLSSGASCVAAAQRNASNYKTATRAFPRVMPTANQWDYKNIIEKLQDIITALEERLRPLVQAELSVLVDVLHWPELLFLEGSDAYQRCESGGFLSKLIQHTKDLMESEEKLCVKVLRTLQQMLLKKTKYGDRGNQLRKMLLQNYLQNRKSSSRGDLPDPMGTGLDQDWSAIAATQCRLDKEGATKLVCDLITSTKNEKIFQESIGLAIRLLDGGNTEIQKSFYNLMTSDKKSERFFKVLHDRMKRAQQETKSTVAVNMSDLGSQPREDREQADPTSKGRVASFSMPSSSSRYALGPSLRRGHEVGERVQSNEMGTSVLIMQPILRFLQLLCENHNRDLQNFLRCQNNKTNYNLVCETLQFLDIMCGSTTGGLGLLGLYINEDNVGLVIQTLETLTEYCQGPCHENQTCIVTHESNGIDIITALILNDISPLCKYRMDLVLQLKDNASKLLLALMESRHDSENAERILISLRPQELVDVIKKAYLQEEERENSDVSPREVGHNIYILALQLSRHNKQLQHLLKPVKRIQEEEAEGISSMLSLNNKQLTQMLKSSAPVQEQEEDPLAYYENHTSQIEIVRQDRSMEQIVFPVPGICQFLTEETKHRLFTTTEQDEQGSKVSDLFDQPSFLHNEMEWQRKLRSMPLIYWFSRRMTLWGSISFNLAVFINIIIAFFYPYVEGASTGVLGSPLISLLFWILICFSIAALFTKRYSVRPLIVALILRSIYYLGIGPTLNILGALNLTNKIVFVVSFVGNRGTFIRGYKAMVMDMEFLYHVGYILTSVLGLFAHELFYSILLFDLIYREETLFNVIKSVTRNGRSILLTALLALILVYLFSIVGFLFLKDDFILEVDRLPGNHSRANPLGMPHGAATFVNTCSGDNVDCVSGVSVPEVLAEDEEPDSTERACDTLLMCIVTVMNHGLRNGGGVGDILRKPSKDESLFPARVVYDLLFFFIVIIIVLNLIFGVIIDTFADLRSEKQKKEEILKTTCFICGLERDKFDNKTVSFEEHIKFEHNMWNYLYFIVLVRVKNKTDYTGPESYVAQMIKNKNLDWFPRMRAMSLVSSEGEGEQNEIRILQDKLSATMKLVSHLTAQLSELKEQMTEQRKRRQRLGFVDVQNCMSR
The nature of experiment [4]: Inhibition of Ins(1,4,5)P3 phosphorylation by rat brain homogenate. It is filed as functional.
The species named for experiment [5] is Homo sapiens. Description: Compound was evaluated for the inhibition of [3H]- Ins(1,4,5)P3 dephosphorylation by human erythrocyte membrane Ins(1,4,5)P3 5-phosphatase. The format is functional.
Experiment [6] can be described thus: Compound was evaluated for its ability to mobilize calcium from [Ca(2+)]-preloaded SH-SY5Y cells permeabilised using saponin. The format is functional, cell-based. Conditions: Homo sapiens; call rule not given here.
The species named for experiment [7] is Homo sapiens. The experiment can be described thus: Enzyme kinetics constant (Km value) was determined in human erythrocyte membrane […]. The format is functional.
For a further experiment, the species on record is Rattus norvegicus. The experiment can be described thus: Enzyme kinetics constant (Km value) was determined in rat brain homogenate […]. It is filed as functional.

`O=C(OC1C(OP(=O)(O)O)C(OP(=O)(O)O)C(OC(=O)c2ccccc2)C(OP(=O)(O)O)C1OP(=O)(O)O)c1ccccc1` (centres undefined): the figures for the EC50 entry in experiment [1] and in experiment [2] were “Not Active” and less than 100 µM, respectively. The Ki is less than 3 µM in experiment [3], 100 µM in experiment [4] and 15.9 µM in the experiment filed under Homo sapiens [5].

In the case of `O=P(O)(O)O[C@H]1[C@H](O)[C@@H](OP(=O)(O)O)[C@H](OP(=O)(O)O)[C@@H](OP(=O)(O)O)[C@H]1O`, the 50% effective concentration (EC50) in experiment [6] was 2.1 µM.

Consider `O=P(O)(O)O[C@@H]1[C@H](O)[C@H](O)[C@@H](OP(=O)(O)O)[C@H](OP(=O)(O)O)[C@H]1O` [INS(1,4,5)P3], for which the EC50 in experiment [6] was determined as 0.052 µM. The Km in the experiment listed under Homo sapiens [7] is 31.8 µM; in the experiment listed under Rattus norvegicus, 1.5 µM.
